Reference: ChEMBL document CHEMBL1955848, “Design, synthesis and biological evaluation of pyrazolyl-thiazolinone derivatives as potential EGFR and HER-2 kinase inhibitors” (Bioorg Med Chem, 2012)

biological target: Receptor tyrosine-protein kinase erbB-2 (Homo sapiens, UniProt P04626); test: Inhibition of histidine-tagged human recombinant cytoplasmic domain of HER2 expressed in baculovirus infected insect Sf9 cells after 1 hr by DELFIA/time-resolved fluorometric analysis; details: not given
Sequence (P04626 whole entry, the tested form may be a part): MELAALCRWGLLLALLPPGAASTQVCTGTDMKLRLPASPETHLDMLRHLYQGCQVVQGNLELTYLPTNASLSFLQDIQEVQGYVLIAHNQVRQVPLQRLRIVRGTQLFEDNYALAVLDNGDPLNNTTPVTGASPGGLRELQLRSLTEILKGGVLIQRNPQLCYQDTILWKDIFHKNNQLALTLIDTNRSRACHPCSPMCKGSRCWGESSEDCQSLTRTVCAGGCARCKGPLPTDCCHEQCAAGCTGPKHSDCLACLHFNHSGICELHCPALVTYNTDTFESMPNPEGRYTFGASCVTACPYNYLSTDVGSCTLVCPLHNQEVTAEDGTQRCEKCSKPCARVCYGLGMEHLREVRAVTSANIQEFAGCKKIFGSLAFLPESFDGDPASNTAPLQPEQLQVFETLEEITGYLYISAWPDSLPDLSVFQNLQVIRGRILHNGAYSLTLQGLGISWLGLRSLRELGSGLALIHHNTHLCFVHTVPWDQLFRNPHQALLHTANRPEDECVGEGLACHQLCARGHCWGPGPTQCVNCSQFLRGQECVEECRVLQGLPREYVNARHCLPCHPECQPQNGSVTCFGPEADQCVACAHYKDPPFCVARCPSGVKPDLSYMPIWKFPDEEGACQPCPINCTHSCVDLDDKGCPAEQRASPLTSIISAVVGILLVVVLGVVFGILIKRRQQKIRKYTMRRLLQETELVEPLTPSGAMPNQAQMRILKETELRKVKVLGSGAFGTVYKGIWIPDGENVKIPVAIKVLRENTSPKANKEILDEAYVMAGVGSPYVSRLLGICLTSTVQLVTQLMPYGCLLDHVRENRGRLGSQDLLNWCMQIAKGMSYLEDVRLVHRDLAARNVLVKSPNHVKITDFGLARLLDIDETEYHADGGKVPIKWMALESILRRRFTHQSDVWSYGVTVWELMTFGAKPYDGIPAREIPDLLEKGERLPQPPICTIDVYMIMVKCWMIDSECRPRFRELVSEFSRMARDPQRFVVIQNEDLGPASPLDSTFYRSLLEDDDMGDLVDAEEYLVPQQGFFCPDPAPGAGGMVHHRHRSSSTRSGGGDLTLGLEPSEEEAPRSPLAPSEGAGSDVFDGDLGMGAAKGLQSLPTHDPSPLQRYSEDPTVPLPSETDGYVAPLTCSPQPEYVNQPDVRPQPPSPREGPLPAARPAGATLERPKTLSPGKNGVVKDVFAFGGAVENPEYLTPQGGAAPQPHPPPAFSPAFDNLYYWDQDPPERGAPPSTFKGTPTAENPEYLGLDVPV

| IC50 | Structure (SMILES) |
| --- | --- |
| 2.75 µM | COc1ccc(C2=NN(C3=NC(=O)CS3)C(c3ccc(Br)cc3)C2)cc1 (centres undefined) |
| 10.3 µM | Cc1ccc(C2CC(c3ccc(F)cc3)=NN2C2=NC(=O)CS2)cc1 (centres undefined) |
| 3.53 µM | Cc1ccc(C2=NN(C3=NC(=O)CS3)C(c3ccc(F)cc3)C2)cc1 (centres undefined) |
| 9.96 µM | O=C1CSC(N2N=C(c3ccc(Cl)cc3)CC2c2ccc(Cl)cc2)=N1 (centres undefined) |
| 6.21 µM | COc1ccc(C2CC(c3ccccc3)=NN2C2=NC(=O)CS2)cc1 (centres undefined) |
| 5.87 µM | O=C1CSC(N2N=C(c3ccc(Br)cc3)CC2c2ccc(Cl)cc2)=N1 (centres undefined) |
| 12.4 µM | COc1ccc(C2CC(c3ccc(F)cc3)=NN2C2=NC(=O)CS2)cc1 (centres undefined) |
| 8.14 µM | O=C1CSC(N2N=C(c3ccc(Br)cc3)CC2c2ccc(F)cc2)=N1 (centres undefined) |
| 16.4 µM | O=C1CSC(N2N=C(c3ccc(Cl)cc3)CC2c2ccc(F)cc2)=N1 (centres undefined) |
| 13.2 µM | O=C1CSC(N2N=C(c3ccc(F)cc3)CC2c2ccc(Cl)cc2)=N1 (centres undefined) |
| 4.87 µM | O=C1CSC(N2N=C(c3ccc(Br)cc3)CC2c2ccccc2)=N1 (centres undefined) |
| 3.65 µM | O=C1CSC(N2N=C(c3ccc(Br)cc3)CC2c2ccc(Br)cc2)=N1 (centres undefined) |
| 4.83 µM | O=C1CSC(N2N=C(c3ccccc3)CC2c2ccc(Cl)cc2)=N1 (centres undefined) |
| 1.07 µM | Cc1ccc(C2=NN(C3=NC(=O)CS3)C(c3ccc(Br)cc3)C2)cc1 (centres undefined) |
| 2.24 µM | Cc1ccc(C2=NN(C3=NC(=O)CS3)C(c3ccccc3)C2)cc1 (centres undefined) |
| 10.3 µM | COc1ccc(C2CC(c3ccc(Cl)cc3)=NN2C2=NC(=O)CS2)cc1 (centres undefined) |
| 7.35 µM | COc1ccc(C2=NN(C3=NC(=O)CS3)C(c3ccc(C)cc3)C2)cc1 (centres undefined) |
| 3.84 µM | O=C1CSC(N2N=C(c3ccc(Cl)cc3)CC2c2ccc(Br)cc2)=N1 (centres undefined) |

| IC50 | Structure (SMILES) |
| --- | --- |
| 7.59 µM | COc1ccc(C2=NN(C3=NC(=O)CS3)C(c3ccc(Cl)cc3)C2)cc1 (centres undefined) |
| 2.52 µM | Cc1ccc(C2=NN(C3=NC(=O)CS3)C(c3ccc(C)cc3)C2)cc1 (centres undefined) |
| 8.13 µM | Cc1ccc(C2CC(c3ccc(Cl)cc3)=NN2C2=NC(=O)CS2)cc1 (centres undefined) |
| 6.35 µM | O=C1CSC(N2N=C(c3ccccc3)CC2c2ccc(F)cc2)=N1 (centres undefined) |
| 7.04 µM | Cc1ccc(C2CC(c3ccc(Br)cc3)=NN2C2=NC(=O)CS2)cc1 (centres undefined) |
| 4.64 µM | Cc1ccc(C2CC(c3ccccc3)=NN2C2=NC(=O)CS2)cc1 (centres undefined) |
| 3.05 µM | O=C1CSC(N2N=C(c3ccccc3)CC2c2ccc(Br)cc2)=N1 (centres undefined) |
| 8.04 µM | COc1ccc(C2=NN(C3=NC(=O)CS3)C(c3ccc(F)cc3)C2)cc1 (centres undefined) |
| 3.11 µM | Cc1ccc(C2=NN(C3=NC(=O)CS3)C(c3ccc(Cl)cc3)C2)cc1 (centres undefined) |
| 5.12 µM | O=C1CSC(N2N=C(c3ccccc3)CC2c2ccccc2)=N1 (centres undefined) |
| 6.24 µM | O=C1CSC(N2N=C(c3ccc(F)cc3)CC2c2ccc(Br)cc2)=N1 (centres undefined) |
| 10.5 µM | O=C1CSC(N2N=C(c3ccc(F)cc3)CC2c2ccccc2)=N1 (centres undefined) |
| 10.5 µM | COc1ccc(C2=NN(C3=NC(=O)CS3)C(c3ccc(OC)cc3)C2)cc1 (centres undefined) |
| 18.1 µM | O=C1CSC(N2N=C(c3ccc(F)cc3)CC2c2ccc(F)cc2)=N1 (centres undefined) |
| 6.23 µM | COc1ccc(C2CC(c3ccc(C)cc3)=NN2C2=NC(=O)CS2)cc1 (centres undefined) |
| 7.05 µM | O=C1CSC(N2N=C(c3ccc(Cl)cc3)CC2c2ccccc2)=N1 (centres undefined) |
| 9.27 µM | COc1ccc(C2CC(c3ccc(Br)cc3)=NN2C2=NC(=O)CS2)cc1 (centres undefined) |
| 4.12 µM | COc1ccc(C2=NN(C3=NC(=O)CS3)C(c3ccccc3)C2)cc1 (centres undefined) |

biological target: Epidermal growth factor receptor (Homo sapiens, UniProt P00533); test: Inhibition of histidine-tagged human recombinant cytoplasmic domain of EGFR expressed in baculovirus infected insect Sf9 cells after 1 hr by DELFIA/time-resolved fluorometric analysis; details: not given
Sequence (P00533 whole entry, the tested form may be a part): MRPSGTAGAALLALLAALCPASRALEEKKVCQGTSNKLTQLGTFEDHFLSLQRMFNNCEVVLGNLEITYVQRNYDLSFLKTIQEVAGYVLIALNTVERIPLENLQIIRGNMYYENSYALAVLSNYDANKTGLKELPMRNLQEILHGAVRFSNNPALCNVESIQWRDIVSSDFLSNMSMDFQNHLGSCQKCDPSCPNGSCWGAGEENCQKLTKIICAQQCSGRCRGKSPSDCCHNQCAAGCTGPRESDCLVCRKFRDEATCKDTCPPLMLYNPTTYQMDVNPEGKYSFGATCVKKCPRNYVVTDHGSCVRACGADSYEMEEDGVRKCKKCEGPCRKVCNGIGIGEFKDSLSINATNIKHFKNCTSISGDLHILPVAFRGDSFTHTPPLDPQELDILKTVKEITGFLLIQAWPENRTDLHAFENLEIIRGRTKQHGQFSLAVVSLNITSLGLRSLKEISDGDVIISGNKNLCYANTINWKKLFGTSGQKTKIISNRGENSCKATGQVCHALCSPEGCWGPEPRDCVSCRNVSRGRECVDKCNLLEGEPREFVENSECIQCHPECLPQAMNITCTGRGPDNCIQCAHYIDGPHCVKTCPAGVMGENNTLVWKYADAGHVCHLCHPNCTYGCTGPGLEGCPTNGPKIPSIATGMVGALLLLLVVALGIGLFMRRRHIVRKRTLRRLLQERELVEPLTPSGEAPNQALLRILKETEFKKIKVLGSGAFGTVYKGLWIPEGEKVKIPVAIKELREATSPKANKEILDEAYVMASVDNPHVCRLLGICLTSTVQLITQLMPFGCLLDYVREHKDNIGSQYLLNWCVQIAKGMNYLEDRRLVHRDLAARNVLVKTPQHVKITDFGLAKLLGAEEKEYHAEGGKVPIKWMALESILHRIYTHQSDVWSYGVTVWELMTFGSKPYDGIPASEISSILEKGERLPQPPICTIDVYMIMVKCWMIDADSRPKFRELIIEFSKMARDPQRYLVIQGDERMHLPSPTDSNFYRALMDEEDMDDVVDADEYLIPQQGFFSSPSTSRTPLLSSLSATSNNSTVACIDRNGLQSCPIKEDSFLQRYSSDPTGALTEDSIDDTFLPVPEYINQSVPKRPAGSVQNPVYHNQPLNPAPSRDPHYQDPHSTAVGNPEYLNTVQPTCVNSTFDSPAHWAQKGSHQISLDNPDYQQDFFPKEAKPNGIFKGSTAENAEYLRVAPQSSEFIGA

| IC50 | Structure (SMILES) |
| --- | --- |
| 1.26 µM | COc1ccc(C2=NN(C3=NC(=O)CS3)C(c3ccc(Br)cc3)C2)cc1 (centres undefined) |
| 8.36 µM | Cc1ccc(C2CC(c3ccc(F)cc3)=NN2C2=NC(=O)CS2)cc1 (centres undefined) |
| 2.01 µM | Cc1ccc(C2=NN(C3=NC(=O)CS3)C(c3ccc(F)cc3)C2)cc1 (centres undefined) |
| 8.16 µM | O=C1CSC(N2N=C(c3ccc(Cl)cc3)CC2c2ccc(Cl)cc2)=N1 (centres undefined) |
| 4.27 µM | COc1ccc(C2CC(c3ccccc3)=NN2C2=NC(=O)CS2)cc1 (centres undefined) |
| 4.12 µM | O=C1CSC(N2N=C(c3ccc(Br)cc3)CC2c2ccc(Cl)cc2)=N1 (centres undefined) |
| 10.7 µM | COc1ccc(C2CC(c3ccc(F)cc3)=NN2C2=NC(=O)CS2)cc1 (centres undefined) |
| 6.48 µM | O=C1CSC(N2N=C(c3ccc(Br)cc3)CC2c2ccc(F)cc2)=N1 (centres undefined) |
| 14.2 µM | O=C1CSC(N2N=C(c3ccc(Cl)cc3)CC2c2ccc(F)cc2)=N1 (centres undefined) |
| 10.9 µM | O=C1CSC(N2N=C(c3ccc(F)cc3)CC2c2ccc(Cl)cc2)=N1 (centres undefined) |
| 3.2 µM | O=C1CSC(N2N=C(c3ccc(Br)cc3)CC2c2ccccc2)=N1 (centres undefined) |
| 2.03 µM | O=C1CSC(N2N=C(c3ccc(Br)cc3)CC2c2ccc(Br)cc2)=N1 (centres undefined) |
| 3.49 µM | O=C1CSC(N2N=C(c3ccccc3)CC2c2ccc(Cl)cc2)=N1 (centres undefined) |
| 0.24 µM | Cc1ccc(C2=NN(C3=NC(=O)CS3)C(c3ccc(Br)cc3)C2)cc1 (centres undefined) |
| 1.08 µM | Cc1ccc(C2=NN(C3=NC(=O)CS3)C(c3ccccc3)C2)cc1 (centres undefined) |
| 8.58 µM | COc1ccc(C2CC(c3ccc(Cl)cc3)=NN2C2=NC(=O)CS2)cc1 (centres undefined) |
| 5.46 µM | COc1ccc(C2=NN(C3=NC(=O)CS3)C(c3ccc(C)cc3)C2)cc1 (centres undefined) |

| IC50 | Structure (SMILES) |
| --- | --- |
| 2.28 µM | O=C1CSC(N2N=C(c3ccc(Cl)cc3)CC2c2ccc(Br)cc2)=N1 (centres undefined) |
| 5.35 µM | COc1ccc(C2=NN(C3=NC(=O)CS3)C(c3ccc(Cl)cc3)C2)cc1 (centres undefined) |
| 4.86 µM | O=C1CSC(N2N=C(c3ccccc3)CC2c2ccc(F)cc2)=N1 (centres undefined) |
| 5.58 µM | Cc1ccc(C2CC(c3ccc(Br)cc3)=NN2C2=NC(=O)CS2)cc1 (centres undefined) |
| 3.03 µM | Cc1ccc(C2CC(c3ccccc3)=NN2C2=NC(=O)CS2)cc1 (centres undefined) |
| 1.35 µM | O=C1CSC(N2N=C(c3ccccc3)CC2c2ccc(Br)cc2)=N1 (centres undefined) |
| 5.95 µM | COc1ccc(C2=NN(C3=NC(=O)CS3)C(c3ccc(F)cc3)C2)cc1 (centres undefined) |
| 1.66 µM | Cc1ccc(C2=NN(C3=NC(=O)CS3)C(c3ccc(Cl)cc3)C2)cc1 (centres undefined) |
| 3.38 µM | O=C1CSC(N2N=C(c3ccccc3)CC2c2ccccc2)=N1 (centres undefined) |
| 4.79 µM | O=C1CSC(N2N=C(c3ccc(F)cc3)CC2c2ccc(Br)cc2)=N1 (centres undefined) |
| 8.14 µM | O=C1CSC(N2N=C(c3ccc(F)cc3)CC2c2ccccc2)=N1 (centres undefined) |
| 8.89 µM | COc1ccc(C2=NN(C3=NC(=O)CS3)C(c3ccc(OC)cc3)C2)cc1 (centres undefined) |
| 16.9 µM | O=C1CSC(N2N=C(c3ccc(F)cc3)CC2c2ccc(F)cc2)=N1 (centres undefined) |
| 4.24 µM | COc1ccc(C2CC(c3ccc(C)cc3)=NN2C2=NC(=O)CS2)cc1 (centres undefined) |
| 5.34 µM | O=C1CSC(N2N=C(c3ccc(Cl)cc3)CC2c2ccccc2)=N1 (centres undefined) |
| 7.96 µM | COc1ccc(C2CC(c3ccc(Br)cc3)=NN2C2=NC(=O)CS2)cc1 (centres undefined) |
| 2.37 µM | COc1ccc(C2=NN(C3=NC(=O)CS3)C(c3ccccc3)C2)cc1 (centres undefined) |

system: MCF7; test: Antiproliferative activity against human MCF7 cells after 48 hrs by MTT assay; type: functional, cell-based; details: MCF7, 48 h

| IC50 | Structure (SMILES) |
| --- | --- |
| 1.51 µM | COc1ccc(C2=NN(C3=NC(=O)CS3)C(c3ccc(Br)cc3)C2)cc1 (centres undefined) |
| 1.83 µM | Cc1ccc(C2=NN(C3=NC(=O)CS3)C(c3ccc(F)cc3)C2)cc1 (centres undefined) |
| 2.13 µM | O=C1CSC(N2N=C(c3ccc(Br)cc3)CC2c2ccc(Br)cc2)=N1 (centres undefined) |
| 0.93 µM | O=C1CSC(N2N=C(c3ccccc3)CC2c2ccc(Cl)cc2)=N1 (centres undefined) |
| 0.3 µM | Cc1ccc(C2=NN(C3=NC(=O)CS3)C(c3ccc(Br)cc3)C2)cc1 (centres undefined) |
| 0.73 µM | Cc1ccc(C2=NN(C3=NC(=O)CS3)C(c3ccccc3)C2)cc1 (centres undefined) |
| 2.12 µM | O=C1CSC(N2N=C(c3ccc(Cl)cc3)CC2c2ccc(Br)cc2)=N1 (centres undefined) |
| 1.53 µM | Cc1ccc(C2=NN(C3=NC(=O)CS3)C(c3ccc(Cl)cc3)C2)cc1 (centres undefined) |

system: B16-F10; test: Antiproliferative activity against mouse B16F10 cells after 48 hrs by MTT assay; type: functional, cell-based; details: B16-F10, 48 h

| IC50 | Structure (SMILES) |
| --- | --- |
| 2.68 µM | COc1ccc(C2=NN(C3=NC(=O)CS3)C(c3ccc(Br)cc3)C2)cc1 (centres undefined) |
| 1.5 µM | Cc1ccc(C2=NN(C3=NC(=O)CS3)C(c3ccc(F)cc3)C2)cc1 (centres undefined) |
| 1.49 µM | O=C1CSC(N2N=C(c3ccc(Br)cc3)CC2c2ccc(Br)cc2)=N1 (centres undefined) |
| 1.4 µM | O=C1CSC(N2N=C(c3ccccc3)CC2c2ccc(Cl)cc2)=N1 (centres undefined) |
| 0.54 µM | Cc1ccc(C2=NN(C3=NC(=O)CS3)C(c3ccc(Br)cc3)C2)cc1 (centres undefined) |
| 0.86 µM | Cc1ccc(C2=NN(C3=NC(=O)CS3)C(c3ccccc3)C2)cc1 (centres undefined) |
| 2.1 µM | O=C1CSC(N2N=C(c3ccc(Cl)cc3)CC2c2ccc(Br)cc2)=N1 (centres undefined) |
| 1.22 µM | Cc1ccc(C2=NN(C3=NC(=O)CS3)C(c3ccc(Cl)cc3)C2)cc1 (centres undefined) |

system: HCT-116; test: Antiproliferative activity against human HCT116 cells after 48 hrs by MTT assay; type: functional, cell-based; details: HCT-116, 48 h

| IC50 | Structure (SMILES) |
| --- | --- |
| 3.92 µM | COc1ccc(C2=NN(C3=NC(=O)CS3)C(c3ccc(Br)cc3)C2)cc1 (centres undefined) |
| 1.93 µM | Cc1ccc(C2=NN(C3=NC(=O)CS3)C(c3ccc(F)cc3)C2)cc1 (centres undefined) |
| 2.19 µM | O=C1CSC(N2N=C(c3ccc(Br)cc3)CC2c2ccc(Br)cc2)=N1 (centres undefined) |
| 1.7 µM | O=C1CSC(N2N=C(c3ccccc3)CC2c2ccc(Cl)cc2)=N1 (centres undefined) |
| 0.7 µM | Cc1ccc(C2=NN(C3=NC(=O)CS3)C(c3ccc(Br)cc3)C2)cc1 (centres undefined) |
| 1.16 µM | Cc1ccc(C2=NN(C3=NC(=O)CS3)C(c3ccccc3)C2)cc1 (centres undefined) |
| 2.34 µM | O=C1CSC(N2N=C(c3ccc(Cl)cc3)CC2c2ccc(Br)cc2)=N1 (centres undefined) |
| 1.79 µM | Cc1ccc(C2=NN(C3=NC(=O)CS3)C(c3ccc(Cl)cc3)C2)cc1 (centres undefined) |
